# Assay results from patent US5958966A, “Treatment of aberrant cellular states with biomodulators” (University of New Mexico, priority 1995, dated 1999).
# Entries after “also recorded” stand apart in the source; their conditions may differ. Like-named read-outs stand apart in the source and are kept apart here.
# Legend:
# [1] = test system: Canine glioma cells; assay: generation time of canine glioma cells (Formula II compound); type: cell-based; conditions: for Tg: control 18.6
# Method: The cells were harvested every 72 hours after the controls had reached 85% confluency. Generation time (Tg) was determined as the number of hours required for the cell population to double.
# Mean of triplicate determinations. Canine glioma cells were grown under conditions to promote exponential growth characteristics; 2×10^5cells in a T-25 flask. The cells were harvested every 72 hours after the controls had reached approximately 85% confluency. The drug was added at the initiation of culture in DMSO, the control cultures had just DMSO. The drug concentration was adjusted with DMS0 so that the final concentration of DMS0 was always 0.5%.
# [2] = test system: human peripheral blood leukocytes (HPBL); assay: stimulation / inhibition of IgG production in HPBL; type: cell-based; conditions: for activation at 0.1 µM: Homo sapiens, Leukocyte, 90 h
# Method: Human peripheral blood leukocytes were cultured in a standard tissue culture medium. Aliquots of these cultured cells (1,000,000 cells/ml medium) were cultured for 6 hours, and the specified amount of Formula II compound was added; the cells were then cultured for an additional 90 hours. Sheep red blood cells (SRBC) conditioned with class-specific (IpG) goat anti-human antiserum (1:400) for 2 hours; then guinea pig complement (2%) for 2 hours were conjugated to Protein A as described in detail in Radioimmunoimaging and Radioimmunotherapy, Eds. S. W. Burchiel and B. A. Rhodes, Elsevier Science Publishing; New York, 1983, pp. 125-127, incorporated herein by reference.
# [3] = test system: human colon carcinoma cell line (LS-174); assay: generation time of LS-174 human colon carcinoma cells; type: cell-based; conditions: for Tg: control 26.5
# Method: The procedure of Example VA, above, was repeated except a human colon carcinoma cell line (LS-174) was used instead of the canine glioma cell line.
# Mean of triplicate determinations. LS-174 cells (human colon carcinoma) were grown under conditions to promote exponential growth characteristics; 2×10^5 cells in a T-25 flask. The cells were harvested every 72 hours after the controls had reached approximately 85% confluency. The drug was added at the initiation of culture in DMSO, the control cultures had just DMS0. The drug concentration was adjusted with DMSO so that the final concentration of DMS0 was always 0.5%.
# [4] = test system: canine glioma tumors; assay: canine glioma tumors in nude rats; type: in vivo, nude rat
# Method: C57 BL/6 mice were injected I.M. with B-16 melanoma cells, maintained in culture in the right flank or shoulder. Tumor growth was monitored on a daily basis by physical measurement and by MRI/MRS on a weekly basis. Treatment routes were via intraperitoneal injection using various CAD between 1 μg and 0.001 μg per animal on a M, W, F injection schedule. The animals were terminated by CO2 when the tumors had become 1.0 cm in diameter. Lung metastases were counted.
# Various biomodulators were tested in vivo for their effects on canine glioma tumors established and monitored as above for mice, but in nude rats.
# The histology stain toluidine blue is in the lower right hand position for orientation.
# [5] = test system: P-815 mastocytoma cells; assay: P-815 cytotoxic T lympholysis / cell mediated lympholysis; type: cell-based, mouse; conditions: hydrocortisone 2 mg day -2; hydroxyurea 10^-5 M
# Method: In this case the P-815 is injected into the H-2 incompatible host and in the Brunner and Cerotini model an antigen specific lympholysis event occurs with an optimum on day 11 at an effector/target ratio of 100:1 with 30% lysis. If the spleens of the injected animals are removed on day three there is no observable cytotoxicity; however, if the spleen cells are treated with biomodulator (in this case PWM at 100 ng) there is an enormous increase in the cytotoxicity event. […] Our model involves at least seven point cytotoxicity curves and for comparison purposes we calculate the slope, intercept and correlation coefficients, and then use that data for further analyses. The slope represents a measure of the efficiency of kill and in the biomodulator treated cells is approximately […] versus 0.24 for the control antigen driven response on day 11. This represents a seven fold increase in simple cytotoxicity efficiency. […]
# P 815 mastocytoma cells are grown in culture or as an ascites (DBA H-2/d) and injected into C57BL/6J mice (H-2/b). […] The specificity of the response is assessed by testing the cytotoxicity against EL-4 cells ([…]) which are NK insensitive and histoincompatible with the original target. […]
# Seven effector/target ratios are tested and the percent lysis calculated. […]
# [6] = test system: canine glioma (CG) cells; assay: cell surface oligosaccharide display of canine glioma cells (lectin binding, Scatchard, Gibb's Free Energy); type: cell-based
# Excerpt: Taken together these affinity differences account for almost 10 kcal of additional binding energy retrievable from interactions in the case of the IMR-90s which is unavailable to the CGs. […] This treatment regimen results in an increase in the Tg of the cells as well as changes in the proton linewidth of unfrozen water (shown below). […] This display more closely resembles that of the growth regulated IMR-90s. It should be noted that the actual lines on these figures are visual estimates however, the data in the boxes are calculated values. It is these values that are used to estimate the GFE for comparison purposes.
# The cell surface oligosaccharide display was assessed by methods developed previously. In brief, cells from a sub-culturing were aliquotted into 96 well trays at 5×10^5 cells per ml, 100 μL aliquots. After 16 hours of culture the cells were washed, fixed, and blocked with 0.1% BSA/PBS. Optimal lectin concentrations (5 μg/ml)were used to give 80 to 90% saturation of the available sites. Three carbohydrate ligands at 10 μg concentrations in triplicate or quadruplicate were then used to prepare competition curves for the lectin binding. The Bound over Free (B/F) ratio was calculated and the Ligand microprocessor program was used to determine the optimal fit of the data to a polynomial generated model. The Gibb's Free Energy (GFE) was calculated from the Scatchard data on the competition assay by the following equation: GFE=-RT 1n Kequit. The proton NMR linewidth measurements were conducted as described previously.
# [7] = test system: canine glioma; assay: canine glioma implanted in dog brain (Formula II / TF compounds); type: in vivo
# Method: Canine glioma was implanted surgically into the brains of four outbred dogs (2×10^6 cells). This procedure normally causes death by tumor growth in 14-28 days. […]
# Tumor progress was assessed at weekly intervals by NMR, employing GdDTPA as imaging agent. This method illuminates vascularization at the surface of the tumor, and provides images which correlate well with neuropathological observations.
# [8] = test system: HPBL / IMR-90 cells; assay: biomodulator assay; type: cell-based, human
# Excerpt: a. Biomodulators cause, at a concentration in the general range of 100 pM-1 μm, the differentiation of lymphocytes. This differentiation can be detected by, for example, the increased production of specific and non-specific antibodies in response to the presence of biomodulator in the culture medium, e.g., according to the HPBL method discussed above in C, or the alteration in the class of antibodies being produced by a cell line, e.g., from IgM to IgG, e.g., according to the method disclosed in the same reference.
# b. Biomodulators cause, at a concentration in the general range of 100 pM-1 μm, the alteration of the cell surface oligosaccharide display of IMR-90 cells in culture as discussed in A. above.
# Activity in both of these assays is a necessary and sufficient measure of whether or not a given substance is a biomodulator, as defined herein.
# [9] = test system: T-independent antigen (TNP-Ficoll) response; assay: in vivo humoral response to TNP-Ficoll (plaque assay); parameters: species or system mouse; conditions: mice
# Method: In this case both IgM and IgG hapten specific responses were recorded as well as non-antigen specific plaque responses (Ig-PFC) using a Protein A coated red blood cell target.
# The TNP-Ficoll antigen is administered as the SRBC antigen was above, by i.p. injection and the response assessed by conjugating the TNP hapten directly to the SRBC target, thus obviating any potential "carrier" effect. […] In this case, a third experimental parameter has been added to the study, the production of non-specific immunoobulin (Ig-PFC). This parameter provides information on the general status of the humoral response regardless of antigen specificity. The TNP-Ficoll antigen does elicit a modest Ig-PFC response but little if any IgG specific response. […] In this case there is a very large specific and non-specific augmentation.
# [10] = 10 nM, 12 × 4 h (so in the source)
# [11] = pre-treated, 10 ng/kg I.P. M, W, F
# [12] = 1 ng/kg I.P. begun same day as implantation
molecule,measurement,setting,value
CC(C)OC(=O)C[C@H](O)C[C@@H](O)/C=C/c1c(C(C)C)nc(-c2ccccc2)n1-c1ccc(F)cc1 (relative stereo) [Compound IIe'],% Change (Tg),"[1]; 10 nM, 72x2 h",129%
same,Tg,"[1]; 10 nM, 72x2 h",24.0 h
same,% Change (Tg),"[1]; 10 nM, 72x3 h",180%
same,Tg,"[1]; 10 nM, 72x3 h",33.4 h
same,% Change (Tg),"[1]; 10 nM, 72x4 h",155%
same,Tg,"[1]; 10 nM, 72x4 h",28.9 h
same,% Change (Tg),"[1]; 10 nM, 72 h",136%
same,contact inhibition,[1]; cells approaching confluency,showed evidence of contact inhibition as the cells approached confluency
same,slowing of the growth rate,"[1]; three passages, 10 nM",1.8 fold
same,Stimulation of IgG Production,[2]; 1&100 nM,1990%
same,IgG production in words,[2]; HPBL,stimulated IgG production
same,activation at 0.1 µM,"[2]; lower concentrations (100 nM), read-out: enhancement of IgG production",< 350%
same,% Change (Tg),[3]; [10],414%
same,Tg,[3]; [10],109.6 h
same,% Change (Tg),"[3]; 10 nM, 72 × 2 h",400%
same,Tg,"[3]; 10 nM, 72 × 2 h",106.2 h
same,% Change (Tg),"[3]; 10 nM, 72 × 3 h",416%
same,Tg,"[3]; 10 nM, 72 × 3 h",110.3 h
same,% Change (Tg),"[3]; 10 nM, 72 h",320%
same,prolongation of generation time,"[3]; three passages, 10 nM",4.16 fold
same,generation time after drug withdrawal,"[3]; two passages, data not shown",returned to control levels
CC(C)OC(=O)C[C@H](O)C[C@H](O)/C=C/c1c(C(C)C)nc(-c2ccccc2)n1-c1ccc(F)cc1 [HHD-3],effect on tumor growth,[4],"showed no regression effect, just delay of the control growth pattern"
CC(C)OC(=O)C[C@H](O)C[C@@H](O)/C=C/c1c(C(C)C)nc(-c2ccccc2)n1-c1ccc(F)cc1 [HHD-7],effect on tumor growth,[4],showed the best regression
C[C@]12CCC(=O)C=C1CC[C@@H]1[C@@H]2[C@@H](O)C[C@@]2(C)[C@H]1CC[C@]2(O)C(=O)CO [Hydrocortisone],influence on the biomodulator effect on CML,[5],reduced the biomodulator effect
NC(=O)NO [Hydroxyurea],influence on the biomodulator effect on CML,[5],does not inhibit the biomodulator effect on CML
CC(C)OC(=O)C[C@H](O)C[C@H](O)/C=C/c1c(C(C)C)nc(-c2ccccc2)n1-c1ccc(F)cc1 [IId],activation at 0.1 µM,"[2]; 100 nM, read-out: Stimulation of IgG Production",320%
O[C@H]1[C@H]2[C@H](O)CCCN2C[C@H]1O [Swainsonine (Sw)],exposure time for increase in GFE,[6],approximately 300 hours
CC(C)c1nc(-c2ccccc2)n(-c2ccc(F)cc2)c1/C=C/[C@H](O)C[C@H](O)CC(=O)O [TF-002],later tumor status,"[7]; later studies, data not shown",free of tumor
same,day of appearance of small tumor,[7]; [11],12 days
same,tumor regressed by day,[7]; [11],≤ 19 days
CC(C)c1c(/C=C/C(O)CC(O)CC(=O)O)n(-c2ccc(F)cc2)c2ccccc12 (stereo not drawn) [TF-004],complete regression by day,[7]; [12],≤ 21 days
same,substantial regression by day,[7]; [12],≤ 15 days
same,complete regression by day,[7]; treatment begun on Day 11,≤ 30 days
same,substantial regression by day,[7]; treatment begun on Day 11,≤ 21 days
Cc1c(/C=C/C(O)CC(O)CC(=O)O)ccc2c1C(O)CC(C)C2 (stereo not drawn) [colletruncoic acid],biomodulator activity,[8],has been shown to have biomodulator activity
Dextran,PFC response to TNP-Ficoll,[9],some stimulatory effect; also recorded: marked cellular proliferation but little differentiative response
